≈ marks a conversion by molar mass, not a printed value. Read-outs that look alike come from different tables or passages of the source.
Assays:
T. rubrum = experiment: Antifungal susceptibility testing (broth dilution), T. rubrum; format: cell-based, Trichophyton rubrum; settings: for MIC: Trichophyton rubrum, read-out: minimum inhibitory concentration (MIC); for minimum inhibitory concentration (MIC): isolate 07-2055
Experimental: (§1) Anti-fungal testing was completed with a common lot for compounds 100 and 102.
(§2) A 10 mg portion of each powder was weighed out and added to 1 ml of sterile distilled water for compound 100 and DMSO for compound 102. The resulting concentration of […] was diluted to a working concentration of 640 μg/ml for each compound. All subsequent dilutions were also made using the respective diluents. Final testing concentrations ranged from 0.125-64 μg/ml.
(§3) A total of 23 isolates were tested to include 3 Candida albicans, 3 Candida glabrata, 3 Cryptococcus neoformans, 3 Aspergillus fumigatus, 3 Rhizopus oryzae, 3, Fusarium solani, 3 Pseudallescheria boydii, and 2 […] rubrum. All isolates were clinical isolates submitted to the Fungus Testing Laboratory for evaluation. Antifungal susceptibility testing was accomplished according to the methods outlined in the National Committee for Clinical Laboratory Standards, M-27A2, Reference Method for Broth Dilution Antifungal Susceptibility Testing of Yeasts; Approved Standard, and M38-A “Reference Method for Broth Dilution Antifungal Susceptibility Testing of Conidium-Forming Filamentous Fungi; Approved Standard”. This includes testing in RPMI-1640 with glutamine and without bicarbonate, an inoculum size of 0.5-2.5×10^3 for yeasts or 1-5×10^4 for moulds, and incubation at 35° C. for 24 and 48 hours.

MOLT-4 cells = experiment: CellTiter-Glo assay, MOLT-4; format: cell-based; settings: Homo sapiens; MOLT-4 acute lympho, 72 hr; read-out: IC50 (50% Inhibition of Proliferation)
Experimental: (§4) MDA-MB-231, HT-29, NCI-H460, NCI-H522, NCI-H69, GXF-209, HepG2, OVAR-3, PANC-1, DU-145, LNCAP, HL-60, K-562, and MOLT-4 cell lines were either obtained from the American Type Culture Collection (ATCC; Manassas, Va.), or from the National Cancer Institute (NCI; Frederick, Md.). RPMI-1640 media, L-glutamine dipeptide (HyQ SG-200), and HEPES were obtained from Hyclone (Logan, Utah).
(§5) All cell lines were routinely cultured twice weekly in RPMI-1640 medium supplemented with 2 mM L-glutamine dipeptide, 10 mM HEPES, and 10% FBS.
(§6) The adherent cell lines MDA-MB-231, HT-29, NCI-H460, NCI-H522, GXF-209, HepG2, OVAR-3, PANC-1, DU-145, and LNCAP cells were each seeded into two 96-well plates at 2,500 cells per well in a total volume of 50 uL and incubated in a 37° C. humidified 5% CO2 cell culture incubator overnight. The suspension cell lines NCI-H69, HL-60, K-562, and MOLT-4 were each seeded into two 96-well plates at 10,000 cell per well in a total volume of 50 uL and incubated in a 37° C. humidified 5% CO2 incubator overnight.
(§7) This was followed by making 2× stocks of the final concentrations required in RPMI-1640 medium. […]
(§8) Briefly, plates were removed from the incubator and placed on the bench at room temperatures for 30 minutes. […] Luminescence was then recorded using the PerkinElmer Microbeta scintillation and luminescence counter (Trilux).

HepG2 cells = experiment: CellTiter-Glo assay, HepG2; format: cell-based; settings: Homo sapiens; HepG2 Liver, 72 hr; read-out: IC50 (50% Inhibition of Proliferation)
Experimental: as §4, §5, §6, §7, §8

NCI-H69 cells = experiment: CellTiter-Glo assay, NCI-H69; format: cell-based; settings: Homo sapiens; NCI-H69 Lung small cell, 72 hr; read-out: IC50 (50% Inhibition of Proliferation)
Experimental: as §4, §5, §6, §7, §8

[1] = tested on: Fourteen Human Cancer Cell Lines; experiment: CellTiter-Glo assay, panel of fourteen human cancer cell lines; format: cell-based; settings: compared with positive comparator doxorubicin
Experimental: as §4, §5, §6, §7, §8

NCI-H522 cells = experiment: CellTiter-Glo assay, NCI-H522; format: cell-based; settings: Homo sapiens; NCI-H522 Lung adenoca, 72 hr; read-out: IC50 (50% Inhibition of Proliferation)
Experimental: as §4, §5, §6, §7, §8

C. neoformans = experiment: Antifungal susceptibility testing (broth dilution), C. neoformans; format: cell-based, Cryptococcus neoformans; settings: for MIC: Cryptococcus neoformans, read-out: minimum inhibitory concentration (MIC)
Experimental: as §1, §2, §3

Stability at acid pH = format: physicochemical
GBM cell line U373 = experiment: cells; format: cell-based, human; settings: for Percent of Control, Observed: U373 (Table 4)
Experimental: To observe the effects Compound 100 in combination with retinoic acids, Compound 100 was combined with all-trans retinoic acid. […] The total number of cells is counted in the triplicate cultures at each dose and in controls after 7 days and the average number of cells and the standard deviation is determined.
The amount of inhibition of GBM cell growth is expressed as the proportion of the number of cells in the experimental dishes compared to the number of cells in control dishes containing only the drug vehicle and culture medium. The average percent of control is plotted and bracketed by one standard deviation calculated from the triplicate measurements.
Synergism (potentiation) of the inhibitory activity of two drugs in combination is said to be present when the percent survival in the presence of two drugs is less than the product of the percent survivals of the two drugs used alone at the same doses in the combination.

[2] = tested on: 23 clinical fungal isolates; experiment: Antifungal susceptibility testing, whole panel of 23 isolates; format: cell-based; settings: at the levels tested, 0.125-64 μg/ml
Experimental: as §1, §2, §3

GBM cell line U87 = experiment: U87 xenograft tumor growth in SCID mice; format: in vivo; settings: subcutaneous in SCID mice, ip daily for 20 days (FIG. 17)
Experimental: For in vivo experiments, subcutaneously implanted tumor cells are allowed to grow over 7 days to a size of 5-7 mm. On day 7, drug administration is begun ip daily for 20 days. The maximum perpendicular diameters of the tumor masses are measured every 2 to 5 days. On the 21st day after initiation of treatment, the animals are sacrificed and dissected free of the subcutaneous tissues and measured.

Compound | minimum inhibitory concentration (MIC) (T. rubrum; 24 Hours) [µg/mL] | minimum inhibitory concentration (MIC) (T. rubrum; 48 Hours) [µg/mL] | IC50 (MOLT-4 cells) [µM] | IC50 (HepG2 cells) [µM] | IC50 (NCI-H69 cells) [µM] | Activity against the fourteen cell lines (in words) [1] | IC50 (NCI-H522 cells) [µM] | minimum inhibitory concentration (MIC) (C. neoformans; isolate 07-2737, 24 Hours) [µg/mL] | minimum inhibitory concentration (MIC) (C. neoformans; isolate 07-2737, 48 Hours) [µg/mL] | minimum inhibitory concentration (MIC) (C. neoformans; isolate 07-2829, 24 Hours) [µg/mL] | minimum inhibitory concentration (MIC) (C. neoformans; isolate 07-2829, 48 Hours) [µg/mL] | also measured
CC(C)(C)OC(=O)N1CCN(C(=O)C2C(C(=O)O)[C@H]3CC[C@@H]2O3)CC1 (stereo in doubt) [Compound 102, 4-(3-Carboxy-7oxa-bicyclo[2.2.1]heptane-2-carbonyl)piperazine-1-carboxylic acid tert-butyl ester] | 2 (≈ 5.64 µM) | 2 (≈ 5.64 µM) | 5.6 | 22.1 | 24.6 | significant activity | 2.2 | >64 | >64 | >64 | >64 | MIC (T. rubrum; isolate 07-1743, 24 Hours): 2 µg/mL (≈ 5.64 µM); MIC (T. rubrum; isolate 07-1743, 48 Hours): 2 µg/mL (≈ 5.64 µM); Antifungal activity against T. rubrum (in words) (T. rubrum; testing concentrations 0.125-64 μg/ml): significant activity; MIC (C. neoformans; isolate 07-2665, 24 Hours): > 64 µg/mL; MIC (C. neoformans; isolate 07-2665, 48 Hours): > 64 µg/mL
CN1CCN(C(=O)C2C(C(=O)O)[C@H]3CC[C@@H]2O3)CC1 (stereo partly shown) [Compound 100, Endothall 4-Methylpiperazine Monoamide] | >64 | >64 | 5.7 | 31.6 | 23.9 | significant activity | 3.4 | >64 | >64 | >64 | >64 | MIC (T. rubrum; 24 h): > 64 µg/mL; MIC (T. rubrum; 48 h): > 64 µg/mL; Stability at acid pH (in words) (Stability at acid pH): stable at acid pH; Percent of Control, Observed (GBM cell line U373; Compound 100 1 μM): 97.9 +/− 1.0% of Control; Percent of Control, Observed (GBM cell line U373; Compound 100 5 μM): 52.5 +/− 2.9% of Control; activity at 1 µM (GBM cell line U373; Homo sapiens, U373 MG, 168 h, Compound 100 1 uM, U373, 7 days (Table 3), read-out: Percent of Control, Observed): 78%; Antifungal activity, all isolates (in words) [2]: no activity; Effect on U87 xenograft tumor growth (in words) (GBM cell line U87): supresses the growth; MIC (C. neoformans; 24 h): > 64 µg/mL; MIC (C. neoformans; 48 h): > 64 µg/mL
